Source: US20020045606A1, “Esters of vitamin D3 and uses thereof” (priority 1999, published 2002)

Assays:
UMR 106 cells [1] = assay: Metabolism of 1α,25(OH)2-16-ene-D3 analogs into less polar fatty acid ester metabolites in bone cells; type: in vitro ADME, rat; details: 10 μM analog incubated 24 h in UMR 106 cells; HPLC (FIG. 1)
Protocol: As described herein, various analogs of 1α,25(OH)2-D3, such as 1α,25(OH)2-16-ene-D3 analogs are metabolized into less polar metabolites in the rat osteosarcoma cell line UMR 106. UMR 106 cells were cultured in an humidified atmosphere at 37° C. in 95% air and 5% CO2. MacCoy's culture medium, containing 10% fetal calf serum (FCS), antibiotics (100 IU/mL penicillin and 100 μg/mL streptomycin) and […], was used. Cells became confluent ten days after seeding, and were then incubated with analog. Samples (structures shown in Table 2) of 1α,25(OH)2-16-ene-D3, 1α,25(OH)2-16-ene-3-epi-D3, 1α,25(OH)2-16-ene-20-epi-D3, 1α,25(OH)2-16-ene-20-epi-3-epi-D3, and 1α,25(OH)2-16-ene-23-yne-D3 were dissolved in ethanol to a final concentration of 10 μM and incubated in 50 mL for 24 h. Each analog was incubated in three culture bottles. Incubation was stopped by adding 10 mL methanol to each culture bottle. Culture bottles were stored at −20° C.
Lipid extraction was initiated by first adding two volumes of methanol to each culture bottle from Example I. The protein precipitate was separated from the supernatant by centrifugation at 3000 rpm at 4° C. for 15 min. The supernatant was mixed with four volumes of dichloromethane in a separatory funnel. The lower organic phase was collected and dried under nitrogen gas at 50° C. After reconstitution in 10% isopropanol/hexane, the lipid extract was analyzed by high-performance liquid chromatography (HPLC).
HPLC was performed with a Waters System Controller (Model 600E) equipped with a photodiode array detector (Model PDA 990) to monitor UV absorption at 265 nm. A Zorbax SIL 9.4×250 mm column (DuPont, Wilmington, Del.) was used for all straight phase systems. The corresponding analog was added to each lipid extract and the solutions were then subjected to a straight phase HPLC system using 10% isopropanol/hexane at a flow rate of 2 mL/min. (HPLC system I). Fractions were collected from 0 min. to 12 min. These fractions were further subjected to a straight phase HPLC system using 2% isopropanol/hexane at a flow rate of 2 mL/min. (HPLC system II).

UMR 106 cells [2] = assay: Distribution of esters and substrates between cells and media, UMR 106; type: in vitro ADME, rat; details: lipid extraction from media and cells separately, HPLC system I
Protocol: Peaks H2-A and H3-A were obtained and purified as described in Example II. In addition, UMR 106 cells were incubated with 1α,25(OH)2-16-ene-20-epi-D3 and 1α,25(OH)2-16-ene-20-epi-3-epi-D3, as described in Example I.
The lipid extraction was carried out from media and cells separately and together, as described in Example II. HPLC was performed with a Waters System Controller (Model 600E) equipped with a photodiode array detector (Model PDA 990) to monitor UV absorption at 265 nm. A Zorbax SIL 9.4×250 mm column (DuPont, Wilmington, Del.) was used for all straight phase systems. Each lipid extract was analyzed using HPLC system I.

| SMILES | amount of less polar fatty acid ester metabolites produced (UMR 106 cells [1]) | distribution between cells and media (UMR 106 cells [2]) |
| --- | --- | --- |
| C=C1/C(=C\C=C2/CCC[C@]3(C)C([C@H](C)CCCC(C)(C)O)=CCC23)C[C@H](O)C[C@@H]1O (stereo partly drawn) [1α,25(OH)2-16-ene-3-epi-D3] | slightly greater amounts of one of the less polar metabolites |  |
| C=C1/C(=C\C=C2/CCC[C@]3(C)C([C@@H](C)CCCC(C)(C)O)=CCC23)C[C@H](O)C[C@@H]1O (stereo partly drawn) [1α,25(OH)2-16-ene-20-epi-3-epi-D3] | enhanced even further | distributed primarily in the media |
| C=C1/C(=C\C=C2/CCC[C@]3(C)C([C@@H](C)CCCC(C)(C)O)=CCC23)C[C@@H](O)C[C@@H]1O (stereo partly drawn) [1α,25(OH)2-16-ene-20-epi-D3] | a greater increase in the amount of the less polar fatty acid ester metabolites | distributed primarily in the media |
| C=C1/C(=C\C=C2/CCC[C@]3(C)C([C@@H](C)CC#CC(C)(C)O)=CCC23)C[C@@H](O)C[C@@H]1O (stereo partly drawn) [1α,25(OH)2-16-ene-23-yne-D3] | reduced |  |
| C=C1/C(=C\C=C2/CCC[C@]3(C)C([C@H](C)CCCC(C)(C)O)=CCC23)C[C@@H](O)C[C@@H]1O (stereo partly drawn) [1α,25(OH)2-16-ene-D3] | production of the less polar fatty acid ester metabolites |  |
